Results on 13 compounds are retold here after PubChem BioAssay (NCI).

Among the test systems are KM20L2 colon; M19-MEL melanoma; DMS 114 small cell lung; XF 498 CNS; LXFL 529 NSCLC; DMS 273 small cell lung; HOP-18 NSCLC; SNB-78 CNS; P388/ADR leukemia; P388 leukemia; RXF-631 renal.
Holding throughout (experiment): NCI tumour cell line growth inhibition, 48 h

Where “and” joins values, the source holds several entries; their conditions need not be identical. Identical values can stand only once.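 Compound exposure: 48 hours, 5 concentrations, 96-well plates. GI50 marks 50% less growth. At the TGI there is no net growth.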

Consider `O=C(NNc1ccc([N+](=O)[O-])cc1)C1OC(CO)C(O)C1O` (stereo not drawn), for which the TGI with KM20L2 colon, with M19-MEL melanoma, in the assay with DMS 114 small cell lung, with XF 498 CNS, in the assay on LXFL 529 NSCLC and with DMS 273 small cell lung was above 100 µM each time. For the same compound, the TGI in the assay with HOP-18 NSCLC and with SNB-78 CNS was above 100 µM throughout.

Regarding `C=C1C(=O)OC2C1CC1OC2C(C)CCC/C(C)=C\CCC1(C)O` (stereo not drawn), the TGI in the assay on P388/ADR leukemia is 58.2 µM; with KM20L2 colon, 81.9 µM; with M19-MEL melanoma, 29 µM; in the assay on DMS 114 small cell lung, 33 µM; in the assay on XF 498 CNS it was 38.9 µM; with P388 leukemia, 42.4 µM. The TGI was determined as 53.1 µM in the assay with DMS 273 small cell lung, 19.7 µM with HOP-18 NSCLC and 42.9 µM in the assay with SNB-78 CNS.

On to `Cc1ccc(NC(=O)NC23CC4CC(CC(F)(C4)C2)C3)cc1`, for which the TGI with KM20L2 colon, in the assay with M19-MEL melanoma, in the assay on DMS 114 small cell lung, in the assay on XF 498 CNS, with LXFL 529 NSCLC and in the assay on DMS 273 small cell lung was above 100 µM throughout. Also, in the assay on SNB-78 CNS, the TGI is above 100 µM.

`CC1=NN(C(=O)Cc2ccccc2)C(=O)/C1=C\c1cccc(O)c1`: the TGI in the assay with M19-MEL melanoma, in the assay with DMS 114 small cell lung, in the assay on XF 498 CNS, with DMS 273 small cell lung, in the assay with HOP-18 NSCLC and in the assay with SNB-78 CNS was above 100 µM each time.

For `CCC[CH2][Ge]([CH2]CCC)([CH2]CCC)[O]C(=O)CCl`, the GI50 in the assay on KM20L2 colon is 2.95 µM; in the assay on M19-MEL melanoma, 11.1 µM; in the assay with DMS 114 small cell lung it was 0.316 µM; with XF 498 CNS, 8.63 µM; with LXFL 529 NSCLC, 1.98 µM; with HOP-18 NSCLC it was 11.7 µM. Also, the TGI with KM20L2 colon amounted to 23.5 µM; in the assay with M19-MEL melanoma it was 23.2 µM; in the assay on DMS 114 small cell lung, 10.2 µM; with XF 498 CNS, 21.1 µM; in the assay on LXFL 529 NSCLC it was 17.1 µM; in the assay on HOP-18 NSCLC, 24 µM.

Turning to `CC1Oc2c(c(O)cc3oc(=O)cc(-c4ccccc4)c23)C(=O)C1C` (stereo not drawn), the TGI in the assay on KM20L2 colon, in the assay on RXF-631 renal, in the assay with XF 498 CNS, with LXFL 529 NSCLC, in the assay with DMS 273 small cell lung and in the assay with HOP-18 NSCLC was above 100 µM throughout. This compound gave a TGI in the assay with SNB-78 CNS above 100 µM.

In the case of `C#Cc1ccccc1C(=O)OC`, the TGI with KM20L2 colon, with DMS 114 small cell lung, in the assay with XF 498 CNS, in the assay with DMS 273 small cell lung and with HOP-18 NSCLC was above 100 µM in each case.

`O.O=[Se](=O)(O)O.[NH-]C1CCCCC1[NH-].[Pt+2]` (stereo not drawn): the GI50 was 7.22 µM with P388/ADR leukemia, 0.433 µM in the assay on P388 leukemia, above 100 µM with HOP-18 NSCLC and 48.4 µM with SNB-78 CNS. The TGI in the assay with P388/ADR leukemia was above 100 µM; with KM20L2 colon, above 100 µM; in the assay with M19-MEL melanoma, above 75.6 µM; with P388 leukemia, 30.9 µM; in the assay on HOP-18 NSCLC, above 100 µM; in the assay with SNB-78 CNS, above 100 µM.

`O=C(c1ccccc1)c1ccc2c(c1)N=C(c1ccc(Cl)c(Cl)c1)CC(c1ccc3ccccc3c1)N2` (stereo not drawn): the TGI in the assay with KM20L2 colon, in the assay on RXF-631 renal, with M19-MEL melanoma, in the assay with DMS 114 small cell lung, in the assay with XF 498 CNS and with LXFL 529 NSCLC was above 100 µM throughout. For the same compound, the TGI in the assay on DMS 273 small cell lung and in the assay with SNB-78 CNS was above 100 µM each time.

As to `COc1cccc2c1C(=O)c1c(O)c3c(c(O)c1C2=O)C[C@](O)(C(=O)CO)CC3OC1CC(N)C(OC2CCCCO2)C(C)O1` (stereo partly drawn), the TGI in the assay with P388/ADR leukemia was above 100 µM; with KM20L2 colon, 4.84 µM; in the assay with XF 498 CNS it was 0.684 µM; with P388 leukemia, 0.233 µM; with DMS 273 small cell lung it was 1.22 µM; in the assay on HOP-18 NSCLC, 3 µM. Moreover, the TGI with SNB-78 CNS was found to be 6.02 µM.

On to `Nc1ncnc2c(C3OC(CO)C(O)C3O)c[nH]c12` (stereo not drawn), for which the TGI was 1.1 µM in the assay with KM20L2 colon; 0.56 µM and 0.533 µM in the assay on RXF-631 renal; 0.196 µM and 0.423 µM with M19-MEL melanoma; 0.0304 µM and 0.0184 µM with DMS 114 small cell lung; 0.168 µM with XF 498 CNS; 0.189 µM and 0.153 µM in the assay with LXFL 529 NSCLC. Moreover, the TGI was 0.116 µM in the assay on DMS 273 small cell lung; 0.497 µM and 1.34 µM in the assay on HOP-18 NSCLC; 1.12 µM in the assay on SNB-78 CNS.

For the compound `COc1ccc(/C(Cl)=C(\C=O)c2ccc(Cl)cc2)cc1`, the TGI is 33.2 µM with KM20L2 colon; 47.6 µM in the assay with RXF-631 renal; 75.4 µM with M19-MEL melanoma; 32.5 µM in the assay on DMS 114 small cell lung; 51 µM with LXFL 529 NSCLC; above 100 µM with DMS 273 small cell lung. In addition, the TGI with HOP-18 NSCLC and in the assay on SNB-78 CNS was above 100 µM in each case.

Take `CN(c1ccccc1)c1c(-c2ccccc2)c(=O)oc2c1ccc1occc12`: the TGI in the assay on P388/ADR leukemia, in the assay with M19-MEL melanoma, in the assay on DMS 114 small cell lung, in the assay on P388 leukemia, with DMS 273 small cell lung and with HOP-18 NSCLC was above 100 µM throughout. The TGI in the assay with SNB-78 CNS is above 100 µM.
